Laboratory results taken from patent US9738634B2, “Heterocyclic amide compound and herbicide” (SYNGENTA PARTICIPATIONS AG, priority 2013, dated 2017).

What was measured:
Assay type in all cases: in vivo
Indian mallow [1] = test: Test Example 3: weedkilling efficacy through soil treatment; K: Indian mallow; conditions: treatment dosage 315 g/ha
Procedure, shortened: (§1)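 Crop and weed responses were judged three weeks after a uniform surface spray of the water-diluted emulsion at the given g/ha rate. Seeds sat beneath about 1.5 cm of sterilized diluvial soil, and boxes stood in a greenhouse at 25 to 30° C.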

directly sown rice [2] = test: Test Example 4: foliar treatment, effect on crop; b: directly sown rice; conditions: treatment dosage 315 g/ha
Procedure, shortened: (§2)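 Seeds are spot-sown into sterilized diluvial soil and covered with about 1.5 cm of soil. After 14 days' greenhouse growth at 25 to 30° C, plants are sprayed on stems and leaves with diluted emulsion at the stated g/ha rate, then scored at 3 weeks.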

fig-leafed goosefoot [3] = test: Test Example 3: weedkilling efficacy through soil treatment; M: fig-leafed goosefoot; conditions: treatment dosage 315 g/ha
Procedure, shortened: as §1

bulrush [4] = test: Test Example 1: weedkilling efficacy, preemergent weed treatment in the submerged state; B: bulrush; conditions: treatment dosage 252 g/ha
Procedure, shortened: (§3)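 Visual scores against set criteria were taken 3 weeks after treatment. Compounds, as diluted emulsions at specified g/ha, went onto the water surface of 4 cm-flooded alluvial soil pots on the day weeds were sown and 2.5-leaf rice was transplanted; greenhouse held 25–30 °C.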

green foxtail [5] = test: Test Example 3: weedkilling efficacy through soil treatment; E: green foxtail; conditions: treatment dosage 315 g/ha
Procedure, shortened: as §1

Indian mallow [6] = test: Test Example 4: weedkilling efficacy by foliar treatment; K: Indian mallow; conditions: treatment dosage 315 g/ha
Procedure, shortened: as §2

oval-leafed pondweed [7] = test: Test Example 1: weedkilling efficacy, preemergent weed treatment in the submerged state; C: oval-leafed pondweed; conditions: treatment dosage 252 g/ha
Procedure, shortened: as §3

Italian ryegrass [8] = test: Test Example 4: weedkilling efficacy by foliar treatment; I: Italian ryegrass; conditions: treatment dosage 315 g/ha
Procedure, shortened: as §2

crabgrass [9] = test: Test Example 4: weedkilling efficacy by foliar treatment; D: crabgrass; conditions: treatment dosage 315 g/ha
Procedure, shortened: as §2

soybean [10] = test: Test Example 4: foliar treatment, effect on crop; d: soybean; conditions: treatment dosage 315 g/ha
Procedure, shortened: as §2

transplanted rice = test: Test Example 1: preemergent weed treatment in the submerged state, effect on crop; a: transplanted rice; conditions: treatment dosage 252 g/ha
Procedure, shortened: as §3

corn [11] = test: Test Example 4: foliar treatment, effect on crop; c: corn; conditions: treatment dosage 315 g/ha
Procedure, shortened: as §2

bulrush [12] = test: Test Example 2: weedkilling efficacy, growth period weed treatment in the submerged state; B: bulrush; conditions: treatment dosage 252 g/ha
Procedure, shortened: (§4)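 Barnyard grass, bulrush and oval-leafed pondweed sown in alluvial soil under 4 cm flooding, greenhouse 25 to 30° C. At 1-2 leaf stage, water-diluted emulsion applied to the water surface at stated g/ha dosages; effects scored 3 weeks later.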

wheat [13] = test: Test Example 4: foliar treatment, effect on crop; e: wheat; conditions: treatment dosage 315 g/ha
Procedure, shortened: as §2

barnyard grass [14] = test: Test Example 2: weedkilling efficacy, growth period weed treatment in the submerged state; A: barnyard grass; conditions: treatment dosage 252 g/ha
Procedure, shortened: as §4

wheat [15] = test: Test Example 3: soil treatment, effect on crop; e: wheat; conditions: treatment dosage 315 g/ha
Procedure, shortened: as §1

green foxtail [16] = test: Test Example 4: weedkilling efficacy by foliar treatment; E: green foxtail; conditions: treatment dosage 315 g/ha
Procedure, shortened: as §2

catchweed = test: Test Example 4: weedkilling efficacy by foliar treatment; O: catchweed; conditions: treatment dosage 315 g/ha
Procedure, shortened: as §2

Italian ryegrass [17] = test: Test Example 3: weedkilling efficacy through soil treatment; I: Italian ryegrass; conditions: treatment dosage 315 g/ha
Procedure, shortened: as §1

birds-eye speedwell [18] = test: Test Example 3: weedkilling efficacy through soil treatment; p: birds-eye speedwell; conditions: treatment dosage 315 g/ha
Procedure, shortened: as §1

fig-leafed goosefoot [19] = test: Test Example 4: weedkilling efficacy by foliar treatment; M: fig-leafed goosefoot; conditions: treatment dosage 315 g/ha
Procedure, shortened: as §2

chickweed [20] = test: Test Example 4: weedkilling efficacy by foliar treatment; N: chickweed; conditions: treatment dosage 315 g/ha
Procedure, shortened: as §2

birds-eye speedwell [21] = test: Test Example 4: weedkilling efficacy by foliar treatment; p: birds-eye speedwell; conditions: treatment dosage 315 g/ha
Procedure, shortened: as §2

corn [22] = test: Test Example 3: soil treatment, effect on crop; c: corn; conditions: treatment dosage 315 g/ha
Procedure, shortened: as §1

black-grass [23] = test: Test Example 4: weedkilling efficacy by foliar treatment; H: black-grass; conditions: treatment dosage 315 g/ha
Procedure, shortened: as §2

beet [24] = test: Test Example 4: foliar treatment, effect on crop; f: beet; conditions: treatment dosage 315 g/ha
Procedure, shortened: as §2

soybean [25] = test: Test Example 3: soil treatment, effect on crop; d: soybean; conditions: treatment dosage 315 g/ha
Procedure, shortened: as §1

redroot pigweed [26] = test: Test Example 3: weedkilling efficacy through soil treatment; L: redroot pigweed; conditions: treatment dosage 315 g/ha
Procedure, shortened: as §1

beet [27] = test: Test Example 3: soil treatment, effect on crop; f: beet; conditions: treatment dosage 315 g/ha
Procedure, shortened: as §1

directly sown rice [28] = test: Test Example 3: soil treatment, effect on crop; b: directly sown rice; conditions: treatment dosage 315 g/ha
Procedure, shortened: as §1

crabgrass [29] = test: Test Example 3: weedkilling efficacy through soil treatment; D: crabgrass; conditions: treatment dosage 315 g/ha
Procedure, shortened: as §1

barnyard grass [30] = test: Test Example 1: weedkilling efficacy, preemergent weed treatment in the submerged state; A: barnyard grass; conditions: treatment dosage 252 g/ha
Procedure, shortened: as §3

chickweed [31] = test: Test Example 3: weedkilling efficacy through soil treatment; N: chickweed; conditions: treatment dosage 315 g/ha
Procedure, shortened: as §1

black-grass [32] = test: Test Example 3: weedkilling efficacy through soil treatment; H: black-grass; conditions: treatment dosage 315 g/ha
Procedure, shortened: as §1

oval-leafed pondweed [33] = test: Test Example 2: weedkilling efficacy, growth period weed treatment in the submerged state; C: oval-leafed pondweed; conditions: treatment dosage 252 g/ha
Procedure, shortened: as §4

redroot pigweed [34] = test: Test Example 4: weedkilling efficacy by foliar treatment; L: redroot pigweed; conditions: treatment dosage 315 g/ha
Procedure, shortened: as §2

SMILES	K (Indian mallow) weedkilling efficacy grade (Indian mallow [1])	b (directly sown rice) effect on crop grade (directly sown rice [2])	M (fig-leafed goosefoot) weedkilling efficacy grade (fig-leafed goosefoot [3])	B (bulrush) weedkilling efficacy grade (bulrush [4])	E (green foxtail) weedkilling efficacy grade (green foxtail [5])	K (Indian mallow) weedkilling efficacy grade (Indian mallow [6])	C (oval-leafed pondweed) weedkilling efficacy grade (oval-leafed pondweed [7])	I (Italian ryegrass) weedkilling efficacy grade (Italian ryegrass [8])	D (crabgrass) weedkilling efficacy grade (crabgrass [9])	d (soybean) effect on crop grade (soybean [10])	a (transplanted rice) effect on crop grade (transplanted rice)	c (corn) effect on crop grade (corn [11])	B (bulrush) weedkilling efficacy grade (bulrush [12])	e (wheat) effect on crop grade (wheat [13])	A (barnyard grass) weedkilling efficacy grade (barnyard grass [14])	e (wheat) effect on crop grade (wheat [15])	E (green foxtail) weedkilling efficacy grade (green foxtail [16])	O (catchweed) weedkilling efficacy grade (catchweed)	I (Italian ryegrass) weedkilling efficacy grade (Italian ryegrass [17])	P (birds-eye speedwell) weedkilling efficacy grade (birds-eye speedwell [18])	also measured
CC1=C(c2cccnc2F)C(=O)N(C(C)(C)C(=O)Nc2cccc(Cl)n2)CO1 [B-2-08]	4 (weed kill ratio 70% or more, less than 90%)	4 (weed kill ratio 70% or more, less than 90%)	4 (weed kill ratio 70% or more, less than 90%)	5 (weed kill ratio 90% or more, (practically complete withering))	5 (weed kill ratio 90% or more, (practically complete withering))	4 (weed kill ratio 70% or more, less than 90%)	5 (weed kill ratio 90% or more, (practically complete withering))	5 (weed kill ratio 90% or more, (practically complete withering))	5 (weed kill ratio 90% or more, (practically complete withering))	4 (weed kill ratio 70% or more, less than 90%)	0 (weed kill ratio 5% or less (practically no effect))	0 (weed kill ratio 5% or less (practically no effect))	5 (weed kill ratio 90% or more, (practically complete withering))	2 (weed kill ratio 20% or more, less than 40%)	5 (weed kill ratio 90% or more, (practically complete withering))	3 (weed kill ratio 40% or more, less than 70%)	5 (weed kill ratio 90% or more, (practically complete withering))	3 (weed kill ratio 40% or more, less than 70%)	5 (weed kill ratio 90% or more, (practically complete withering))	4 (weed kill ratio 70% or more, less than 90%)	M (fig-leafed goosefoot) weedkilling efficacy grade (fig-leafed goosefoot [19]): 4 (weed kill ratio 70% or more, less than 90%); N (chickweed) weedkilling efficacy grade (chickweed [20]): 4 (weed kill ratio 70% or more, less than 90%); P (birds-eye speedwell) weedkilling efficacy grade (birds-eye speedwell [21]): 4 (weed kill ratio 70% or more, less than 90%); c (corn) effect on crop grade (corn [22]): 0 (weed kill ratio 5% or less (practically no effect)); H (black-grass) weedkilling efficacy grade (black-grass [23]): 5 (weed kill ratio 90% or more, (practically complete withering)); f (beet) effect on crop grade (beet [24]): 5 (weed kill ratio 90% or more, (practically complete withering)); d (soybean) effect on crop grade (soybean [25]): 0 (weed kill ratio 5% or less (practically no effect)); L (redroot pigweed) weedkilling efficacy grade (redroot pigweed [26]): 4 (weed kill ratio 70% or more, less than 90%); f (beet) effect on crop grade (beet [27]): 1 (weed kill ratio 5% or more, less than 20%); b (directly sown rice) effect on crop grade (directly sown rice [28]): 5 (weed kill ratio 90% or more, (practically complete withering)); D (crabgrass) weedkilling efficacy grade (crabgrass [29]): 5 (weed kill ratio 90% or more, (practically complete withering)); A (barnyard grass) weedkilling efficacy grade (barnyard grass [30]): 5 (weed kill ratio 90% or more, (practically complete withering)); N (chickweed) weedkilling efficacy grade (chickweed [31]): 3 (weed kill ratio 40% or more, less than 70%); H (black-grass) weedkilling efficacy grade (black-grass [32]): 5 (weed kill ratio 90% or more, (practically complete withering)); C (oval-leafed pondweed) weedkilling efficacy grade (oval-leafed pondweed [33]): 5 (weed kill ratio 90% or more, (practically complete withering)); L (redroot pigweed) weedkilling efficacy grade (redroot pigweed [34]): 4 (weed kill ratio 70% or more, less than 90%)
CC1=C(c2ccccc2)C(=O)N(C(C)(C)C(=O)Nc2cccc(Cl)n2)CO1 [B-2-29]	4 (weed kill ratio 70% or more, less than 90%)	5 (weed kill ratio 90% or more, (practically complete withering))	5 (weed kill ratio 90% or more, (practically complete withering))	5 (weed kill ratio 90% or more, (practically complete withering))	5 (weed kill ratio 90% or more, (practically complete withering))	5 (weed kill ratio 90% or more, (practically complete withering))	5 (weed kill ratio 90% or more, (practically complete withering))	5 (weed kill ratio 90% or more, (practically complete withering))	5 (weed kill ratio 90% or more, (practically complete withering))	5 (weed kill ratio 90% or more, (practically complete withering))	0 (weed kill ratio 5% or less (practically no effect))	4 (weed kill ratio 70% or more, less than 90%)	5 (weed kill ratio 90% or more, (practically complete withering))	5 (weed kill ratio 90% or more, (practically complete withering))	5 (weed kill ratio 90% or more, (practically complete withering))	5 (weed kill ratio 90% or more, (practically complete withering))	5 (weed kill ratio 90% or more, (practically complete withering))	4 (weed kill ratio 70% or more, less than 90%)	5 (weed kill ratio 90% or more, (practically complete withering))	5 (weed kill ratio 90% or more, (practically complete withering))	M (fig-leafed goosefoot) weedkilling efficacy grade (fig-leafed goosefoot [19]): 4 (weed kill ratio 70% or more, less than 90%); N (chickweed) weedkilling efficacy grade (chickweed [20]): 5 (weed kill ratio 90% or more, (practically complete withering)); P (birds-eye speedwell) weedkilling efficacy grade (birds-eye speedwell [21]): 4 (weed kill ratio 70% or more, less than 90%); c (corn) effect on crop grade (corn [22]): 0 (weed kill ratio 5% or less (practically no effect)); H (black-grass) weedkilling efficacy grade (black-grass [23]): 5 (weed kill ratio 90% or more, (practically complete withering)); f (beet) effect on crop grade (beet [24]): 4 (weed kill ratio 70% or more, less than 90%); d (soybean) effect on crop grade (soybean [25]): 3 (weed kill ratio 40% or more, less than 70%); L (redroot pigweed) weedkilling efficacy grade (redroot pigweed [26]): 4 (weed kill ratio 70% or more, less than 90%); f (beet) effect on crop grade (beet [27]): 5 (weed kill ratio 90% or more, (practically complete withering)); b (directly sown rice) effect on crop grade (directly sown rice [28]): 5 (weed kill ratio 90% or more, (practically complete withering)); D (crabgrass) weedkilling efficacy grade (crabgrass [29]): 5 (weed kill ratio 90% or more, (practically complete withering)); A (barnyard grass) weedkilling efficacy grade (barnyard grass [30]): 5 (weed kill ratio 90% or more, (practically complete withering)); N (chickweed) weedkilling efficacy grade (chickweed [31]): 5 (weed kill ratio 90% or more, (practically complete withering)); H (black-grass) weedkilling efficacy grade (black-grass [32]): 5 (weed kill ratio 90% or more, (practically complete withering)); C (oval-leafed pondweed) weedkilling efficacy grade (oval-leafed pondweed [33]): 5 (weed kill ratio 90% or more, (practically complete withering)); L (redroot pigweed) weedkilling efficacy grade (redroot pigweed [34]): 5 (weed kill ratio 90% or more, (practically complete withering))
